What was measured:
[1] = test system: antiFL(Mut2) CAR T cells; assay: Cytokine release assay with dose titration of NaFL (Example 3); assay type: cell-based
Experimental: FIG. 3D depicts a cytokine release assay measuring IL-2 using the effector cells generated in FIG. 3A-B, target cells tested in FIG. 3C, and a dose titration of NaFL (0, 1, 5, or 10 μM).
FIG. 3E depicts a cytokine release assay measuring IFN-γ using the effector cells generated in FIG. 3A-B, target cells tested in FIG. 3C, and a dose titration of NaFL (0, 1, 5, or 10 μM).
FIG. 3F depicts a cytokine release assay measuring TNF-α using the effector cells generated in FIG. 3A-B, target cells tested in FIG. 3C, and a dose titration of NaFL (0, 1, 5, or 10 μM).
CD4+ and CD8+ T cells from peripheral blood mononuclear cell preparations from two donors were lentivirally transduced to express long CAR cassettes comprising the antiFL(Mut2) CAR. The CAR cassette also contains the gene for a double mutant dihydrofolate reductase that allows for methotrexate positive selection to enrich for transduced CAR-expressing cells as well as the gene for the truncated CD19 (CD19t) surface marker that denotes CAR positivity. The selected cells are then subjected to a standard rapid expansion protocol using irradiated TM-LCL and PBMC feeder cells. After 14 days of expansion, cells were stained with anti-CD4, anti-CD8, and anti-CD19 antibodies as well as a live-dead stain to characterize surface phenotypes by flow cytometry. Flow plots for the CD4 and CD8 populations (FIG. 3A) and CAR positivity (FIG. 3B) are shown for mock and antiFL(Mut2) CAR T cells for both donors. These are the effector cells to be used in subsequent experiments.
A cytokine release assay was set up to examine how a dose titration of NaFL (0, 1, 5, and 10 μM) affects the activation of antiFL CAR T cells. The CAR T cells are the antiFL(Mut2) CAR T cells generated in this example. Target cells were incubated with FL-PLE/NaFL for 24 hours or overnight. The media supernatant from target cell cultures were harvested and constituent cytokines were measured (e.g. with a Bio-Plex Human Cytokine Screening Panel). The cytokines IL-2 (FIG. 3D), IFN-γ (FIG. 3E), and TNF-α (FIG. 3F) were measured.

[2] = test system: antiFL(FITC-E2) CAR T cells; assay: Chromium release assay and cytokine release assay, antiFL(FITC-E2) CAR T cells with FL-PLE-loaded K562 target cells; assay type: cell-based; conditions: 50 μM NaFL; K562 target cells with 5 μM FL-PLE
Experimental: FIG. 1B depicts a chromium release assay for effector T cells (CD8+ Mock or CD8+ antiFL(FITC-E2) CAR(Lg) T cells) mixed at various ratios with target cells (effector:target, E:T). The target cells are K562 control, K562 OKT3+, and K562 with 5 μM FL-PLE. One CD8+ antiFL(FITC-E2) population was exposed to 50 μM NaFL.
FIG. 1C depicts a cytokine release assay for helper cells (CD4+ Mock or CD4+ antiFL(FITC-E2) CAR(Lg) T cells) and effector T cells (CD8+ Mock or CD8+ antiFL(FITC-E2) CAR(Lg) T cells) mixed with target cells. The target cells are K562 control, K562 OKT3+, and K562 with 5 μM FL-PLE. One CD4+ and CD8+ antiFL(FITC-E2) population was exposed to 50 μM NaFL.
K562 (leukemia) cells were incubated with FL-PLE overnight. Cell integration of FL-PLE was analyzed by flow cytometry (FIG. 1A). There was a clear shift from the control K562 parental with the K562 parental incubated with 5 μM FL-PLE. This slight shift corresponded to a difference in the amount of FL exposed on the surface of the cell for CAR T cell recognition. These cells were used in a chromium release assay (FIG. 1B) and a cytokine release assay (FIG. 1C) to test whether the activation of CD8+ and CD4+ antiFL(FITC-E2) CAR T cells through FL-PLE integrated into K562 cells could be stopped in the presence of sodium fluorescein (NaFL). […]

[3] = test system: antiFL(Mut2) CAR T cells; assay: In vivo intravenous use of NaFL to reverse cytokine toxicity by antiFL CAR T cells (Example 4); set-up: species or system mice
Experimental: Group A—control (5 mice): MDA-MB-231 tumor+antiFL(Mut2) CAR T cells.
Group B—FL-PLE without NaFL (5 mice): MDA-MB-231 tumor+antiFL(Mut2) CAR T cells+1 mg IV FL-PLE.
Group C—FL-PLE and NaFL (5 mice): MDA-MB-231 tumor+antiFL(Mut2) CAR T cells+1 mg IV FL-PLE+0.5 mg IV NaFL (as needed).
Group D—No tumor control (3 mice): antiFL(Mut2) CAR T cells+1 mg IV FL-PLE+0.5 mg IV NaFL (as needed).
Mice receiving FL-PLE (Groups B, C, and D) were administered FL-PLE IV first. AntiFL(Mut2) CAR T cells were subsequently administered in all mice 2 days following FL-PLE administration. […] Reduction of cytokine toxicity symptoms in mice of Groups C and D was observed within 15 minutes after administration of NaFL.

[4] = test system: antiFL(FITC-E2) CAR T cells; assay: MDA-MB-231 xenograft mouse model: monitoring of cytokine release syndrome (CRS) and cytotoxicity; assay type: in vivo, mice
Description: FIG. 2B depicts levels of cytokine release syndrome (CRS) and cytotoxicity in an MDA-MB-231 adenocarcinoma tumor xenograft mouse model over time. FIG. 2B (lower panel) is an enlargement of an area of FIG. 2B (upper panel).
After an adenocarcinoma (MDA-MB-231) tumor was established in 2 groups of mice by subcutaneous injection (2 tumors per mouse in opposite flanks), the mice received an intravenous injection of antiFL(FITC-E2) CART cells on day 6. The control group (no drug) only received the antiFL(FITC-E2) CAR T cells and the tumor progressed as normal. […] The mice were monitored for cytokine release syndrome (CRS) and cytotoxicity on a scale ranging from 1 (healthy) to 5 (dead) (FIG. 2B). On day 17, the intratumoral dose of FL-PLE was increased to 2 μg per tumor. On day 18, the mice had levels of CRS/toxicity between 3 and 4 at which point they received a dose of 0.56 mg of NaFL via an intravenous injection. […] After this, all doses of FL-PLE were administered at 1 μg per tumor.

## O=C([O-])c1ccccc1-c1c2ccc(=O)cc-2oc2cc([O-])ccc12.[Na+].[Na+] [NaFL, sodium fluorescein]
[1]; NaFL 0, 1, 5, and 10 μM, all three cytokines, both donor T cells
  Amount of activation of antiFL(Mut2) CAR T cells (IL-2, IFN-γ, TNF-α) versus amount of NaFL: decreased by the amount of NaFL present in the solution in a linear fashion
[1]; NaFL 0, 1, 5, or 10 μM, FIG. 3D
  Effect of NaFL on IL-2 release by antiFL(Mut2) CAR T cells: dose dependent
[1]; NaFL 0, 1, 5, or 10 μM, FIG. 3E
  Effect of NaFL on IFN-γ release by antiFL(Mut2) CAR T cells: dose dependent
[1]; NaFL 0, 1, 5, or 10 μM, FIG. 3F
  Effect of NaFL on TNF-α release by antiFL(Mut2) CAR T cells: dose dependent
[2]
  Effect of NaFL on recognition and activation of antiFL(FITC-E2) CAR T cells: able to stop the recognition and activation
[3]; 0.5 mg IV NaFL, mice
  Tolerability in vivo: well tolerated
[3]; Groups C and D, 0.5 mg IV NaFL
  Time to reduction of cytokine toxicity symptoms after administration of NaFL: ≤ 15 min
[3]; Groups C and D, 2 days following first administration of NaFL, optionally with additional IV injections
  Cytokine levels after NaFL: comparable to baseline
[4]; 0.56 mg NaFL intravenous injection on day 18
  Time for cytotoxicity level to return to roughly baseline levels after NaFL: ≤ 12 h
[4]; 0.56 mg NaFL intravenous injection on day 18 at CRS/toxicity level 3 to 4
  Cytotoxicity level after NaFL: Within minutes, the cytotoxicity level had dropped
